Assay results reported in patent US11085050B2, “Elite event EE-GH7 and methods and kits for identifying such event in biological samples” (BASF AGRICULTURAL SOLUTIONS SEED, US LLC, priority 2016, dated 2021).

Columns and labels:
[1] = system: commercial cotton cultivars comprising EE-GH7; test: Herbicide tolerance after introgression of EE-GH7 into commercial cotton cultivars; format: in vivo, cotton (Gossypium hirsutum); details: EE-GH7 introgressed by repeated back-crossing into commercial cultivars
From the text: This confirms the status of event EE-GH7 as an elite event.

[2] = system: plants comprising EE-GH7; test: Field tolerance of plants comprising EE-GH7 to IFT, glyphosate and combinations; format: in vivo, cotton (Gossypium hirsutum)
Method: Tolerance of plants comprising EE-GH7 to IFT, to glyphosate and to combinations thereof, was tested at different locations in the field. […] Currently available data appear to indicate a performance which is at least equal to, or better than the performance of plants comprising EE-GH7 over plants comprising the hppd and epsps chimeric genes as described in WO2013/026740.

Question: `CS(=O)(=O)c1cc(C(F)(F)F)ccc1C(=O)c1cnoc1C1CC1` [IFT, (5-cyclopropyl-4-isoxazolyl)[2-(methylsulfonyl)-4-(trifluoromethyl)phenyl]methanone] was tested. Which “Expression of the transgene as determined by herbicide tolerance” value [1] did it give?
Answer: The value was “meets commercially acceptable levels”.

Question: What about the “Tolerance of plants comprising EE-GH7 to the herbicide” value ([2]; different locations, IFT alone, in particular applied before emergence) of the same molecule?
Answer: Its value is “good tolerance”.

Question: Which “Expression of the transgene as determined by herbicide tolerance” value [1] does the source give for `O=C(O)CNCP(=O)(O)O` [glyphosate] here?
Answer: Its value is “meets commercially acceptable levels”.

Question: What about the “Tolerance of plants comprising EE-GH7 to the herbicide” value ([2]; applied post emergence) of the same molecule?
Answer: The value was “good tolerance”.

Question: What about the “Glyphosate tolerance of plants comprising EE-GH7 compared with elite glyphosate tolerant event EE-GH3” value ([2]; versus EE-GH3 of WO2007/017186) of the same molecule?
Answer: Its value is “equal to or better than”.
